Assay results published in patent US20230339871A1, “COMPOUNDS AND METHODS OF MODULATING 17B-HYDROXYSTEROID DEHYDROGENASE TYPE 13” (METREA BIOSCIENCES, INC., priority 2020, published 2023).
pIC50: −log10 of the molar value.

Target: T1, recombinant human full-length HSD17B13 protein (Homo sapiens, UniProt Q7Z5P4)
T1 construct: recombinant human full-length HSD17B13 protein; 6xHis (C); made in house; host or cells: HEK293E-253/FH
T1 sequence (Q7Z5P4 20-300): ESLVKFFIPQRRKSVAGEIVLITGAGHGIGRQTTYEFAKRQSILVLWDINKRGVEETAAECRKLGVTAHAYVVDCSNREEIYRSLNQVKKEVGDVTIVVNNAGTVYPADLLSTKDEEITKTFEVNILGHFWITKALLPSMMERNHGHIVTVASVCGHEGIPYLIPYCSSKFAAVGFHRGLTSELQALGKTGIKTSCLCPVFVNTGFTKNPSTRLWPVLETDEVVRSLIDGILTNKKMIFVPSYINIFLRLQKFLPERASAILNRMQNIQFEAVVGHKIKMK
Assay: HSD17B13 96 luminescence inhibition assay (NAD(P)H-Glo)
Format: biochemical
Procedure: Compounds of the present disclosure were tested for inhibition of HSD17B13 using the following protocol. Briefly, recombinant human full-length HSD17B13 protein with a 6X-C-terminal His tag was expressed in cell line HEK293E-253/FH and purified using Ni^2+-affinity purification. Enzymatic activity was determined through the production of NADH using the NAD(P)H-Glo Detection System (Promega). The inhibitory activity of test compounds was determined in reactions performed at 30° C. in assay buffer consisting of 25 mM EPPS (8.0), 125 mM NaCl, 0.03% Triton X-100, 0.03% BSA, with […] steroid substrate (1,3,5(10), 7-estratetraen-3, 17b-diol (Steraloids E0580)) added from a 2.5 mM DMSO stock and 500 mM NAD. The final percentage of DMSO was 4.5%. After a one-hour incubation, a 20% volume of luciferase Glo-reagent was added and light units captured on a Victor V Plate Reader (Perkin Elmer).
Concentration-response curves for inhibitors were normalized to control samples containing enzyme only (negative control) and sample without enzyme (positive control). 50% inhibition (IC50) values were determined using a nonlinear least squares fit of the data to a four-parameter equation using Prism 6.0 (GraphPad Software, San Diego).

| Structure (SMILES) | pIC50 |
| --- | --- |
| O=C(NCc1cccc(-c2nnn[nH]2)c1)c1ccc2cc(F)c(O)cc2n1 [Compound 25, N-(3-(1H-tetrazol-5-yl)benzyl)-6-fluoro-7-hydroxyquinoline-2-carboxamide] | < 5.30 |
| CS(=O)(=O)Nc1cccc(CN2C(=O)S/C(=C\c3ccc(F)c(O)c3)C2=O)c1 [Compound 20, N-(3-{[(5Z)-5-[(4-fluoro-3-hydroxyphenyl)methylidene]-2,4-dioxo-1,3-thiazolidin-3-yl]methyl}phenyl)methanesulfonamide] | < 5.30 |
| O=C1S/C(=C\c2cc(F)c(F)c(O)c2F)C(=O)N1Cc1cccc(O)c1 [Compound 3, (Z)-3(3-hydroxybenzyl)-5-(2,4,5-trifluoro-3-hydroxybenzylidene)thiazolidine-2,4-dione] | 5.30 to 6.00 |
| O=C1S/C(=C\c2c(F)cc(F)c(O)c2F)C(=O)N1Cc1cc[nH]c(=O)c1 [Compound 36, (Z)-3-((2-oxo-1,2-dihydropyridin-4-yl)methyl)-5-(2,4,6-trifluoro-3-hydroxybenzylidene)thiazolidine-2,4-dione] | 5.30 to 6.00 |
| COc1cccc(CNC(=O)c2ccc3cc(F)c(O)c(F)c3n2)c1 [Compound 39, 6,8-difluoro-7-hydroxy-N-[(3-methoxyphenyl)methyl]quinoline-2-carboxamide] | 5.30 to 6.00 |
| NS(=O)(=O)c1cccc(CN2C(=O)S/C(=C\c3ccc(F)c(O)c3)C2=O)c1 [Compound 33, (Z)-3-((5-(4-fluoro-3-hydroxybenzylidene)-2,4-dioxothiazolidin-3-yl)methyl) benzenesulfonamide] | ≥ 6.00 |
| O=C1S/C(=C\c2ccc(F)c(O)c2)C(=O)N1Cc1ccc(F)c(F)c1 [Compound 2, (Z)-3-(3,4-difluorobenzyl)-5-(4-fluoro-3-hydroxybenzylidene)thiazolidine-2,4-dione] | 5.30 to 6.00 |
| O=C1O/C(=C\c2ccc(F)c(O)c2)C(=O)N1Cc1cccc(O)c1 [Compound 10, (Z)-5-(4-fluoro-3-hydroxybenzylidene)-3-(3-hydroxybenzyl)oxazolidine-2,4-dione] | < 5.30 |
| O=C(c1ccc(-c2ccc(F)c(O)c2F)s1)c1ccc(F)c(O)c1F [Compound 32, (2,4-difluoro-3-hydroxyphenyl)(5-(2,4-difluoro-3-hydroxyphenyl)thiophen-2-yl)methanone] | 5.30 to 6.00 |
| O=C1S/C(=C\c2cc(O)c(F)c(F)c2)C(=O)N1Cc1cccc(O)c1 [Compound 7, (5Z)-5-[(3,4-difluoro-5-hydroxyphenyl)methylidene]-3-[(3-hydroxyphenyl)methyl]-1,3-thiazolidine-2,4-dione] | 5.30 to 6.00 |
| CS(=O)(=O)N1CCC(CN2C(=O)S/C(=C\c3c(F)cc(F)c(O)c3F)C2=O)C1 (centres unmarked) [Compound 1, (Z)-3-((1-(methylsulfonyl)pyrrolidin-3-yl)methyl)-5-(2,4,6-trifluoro-3-hydroxybenzylidene)thiazolidine-2,4-dione] | < 5.30 |
| O=C(c1ccc(-c2ccc(F)c(O)c2F)s1)c1cc(F)c(F)c(O)c1F [Compound 31, (5-(2,4-difluoro-3-hydroxyphenyl)thiophen-2-yl)(2,4,5-trifluoro-3-hydroxyphenyl) methanone] | 5.30 to 6.00 |
| O=C(c1ccc(-c2ccc(F)c(O)c2F)s1)c1c(F)cc(F)c(O)c1F [Compound 29, (5-(2,4-difluoro-3-hydroxyphenyl)thiophen-2-yl)(2,4,6-trifluoro-3-hydroxyphenyl)methanone] | 5.30 to 6.00 |
| O=C(c1cc(O)c(F)c(F)c1)c1ccc(-c2ccc(F)c(O)c2F)s1 [Compound 30, (5-(2,4-difluoro-3-hydroxyphenyl)thiophen-2-yl)(3,4-difluoro-5-hydroxyphenyl) methanone] | 5.30 to 6.00 |
| NC(=O)c1cccc(CN2C(=O)S/C(=C\c3ccc(F)c(O)c3)C2=O)c1 [Compound 18, (Z)-3-((5-(4-fluoro-3-hydroxybenzylidene)-2,4-dioxothiazolidin-3-yl)methyl) benzamide] | 5.30 to 6.00 |
| O=C1S/C(=C\c2ccc(F)c(O)c2)C(=O)N1Cc1cccc(C(F)(F)F)c1 [Compound 17, (Z)-5-(4-fluoro-3-hydroxybenzylidene)-3-(3-(trifluoromethyl)benzyl)thiazolidine-2,4-dione] | 5.30 to 6.00 |
| O=C1S/C(=C\c2ccc(F)c(O)c2)C(=O)N1Cc1cccc(-c2c[nH]nn2)c1 [Compound 15, (Z)-3-(3-(1H-1,2,3-triazol-4-yl)benzyl)-5-(4-fluoro-3-hydroxybenzylidene) thiazolidine-2,4-dione] | 5.30 to 6.00 |
| N#Cc1cccc(CNC(=O)c2ccc3cc(F)c(O)cc3n2)c1 [Compound 27, N-(3-cyanobenzyl)-6-fluoro-7-hydroxyquinoline-2-carboxamide] | < 5.30 |

| Structure (SMILES) | pIC50 |
| --- | --- |
| O=C1S/C(=C\c2c(F)ccc(O)c2F)C(=O)N1Cc1cccc(O)c1 [Compound 37, (Z)-5-(2,6-difluoro-3-hydroxybenzylidene)-3-(3-hydroxybenzyl)thiazolidine-2,4-dione] | < 5.30 |
| O=C1S/C(=C\c2ccc(F)c(O)c2)C(=O)N1Cc1cc(O)ccc1F [Compound 8, (Z)-5-(4-fluoro-3-hydroxybenzylidene)-3-(2-fluoro-5-hydroxybenzyl)thiazolidine-2,4-dione] | 5.30 to 6.00 |
| COc1ccc(CN2C(=O)S/C(=C\c3c(F)cc(F)c(O)c3F)C2=O)cn1 [Compound 23, (Z)-3-((6-methoxypyridin-3-yl)methyl)-5-(2,4,6-trifluoro-3-hydroxybenzylidene)thiazolidine-2,4-dione] | 5.30 to 6.00 |
| O=C1S/C(=C\c2ccc(F)c(O)c2F)C(=O)N1Cc1cccc(O)c1 [Compound 6, (Z)-5(2,4-difluoro-3-hydroxybenzylidene)-3-(3-hydroxybenzyl)thiazolidine-2,4-dione] | 5.30 to 6.00 |
| O=C1S/C(=C\c2ccc(F)c(O)c2)C(=O)N1Cc1cc(O)cc(F)c1 [Compound 9, (Z)-5-(4-fluoro-3-hydroxybenzylidene)-3-(3-fluoro-5-hydroxybenzyl)thiazolidine-2,4-dione] | 5.30 to 6.00 |
| O=C(NCc1cccc(O)c1)c1cc2cc(O)c(F)cc2cn1 [Compound 26, 7-fluoro-6-hydroxy-N-(3-hydroxybenzyl)isoquinoline-3-carboxamide] | < 5.30 |
| COc1cc(CN2C(=O)S/C(=C\c3c(F)cc(F)c(O)c3F)C2=O)ccn1 [Compound 22, (Z)-3-((2-methoxypyridin-4-yl)methyl)-5-(2,4,6-trifluoro-3-hydroxybenzylidene) thiazolidine-2,4-dione] | ≥ 6.00 |
| O=C(NCc1cccc(O)c1)c1ccc2cc(F)c(O)cc2n1 [Compound 24, 6-fluoro-7-hydroxy-N-(3-hydroxybenzyl)quinoline-2-carboxamide] | 5.30 to 6.00 |
| O=C1S/C(=C\c2ccc(F)c(O)c2)C(=O)N1Cc1cccc(O)c1 [Compound 11, (Z)-5-(4-fluoro-3-hydroxybenzylidene)-3-(3-hydroxybenzyl)thiazolidine-2,4-dione] | 5.30 to 6.00 |
| N#Cc1cccc(CN2C(=O)S/C(=C\c3ccc(F)c(O)c3)C2=O)c1 [Compound 19, (Z)-3-((5-(4-fluoro-3-hydroxybenzylidene)-2,4-dioxothiazolidin-3-yl)methyl) benzonitrile] | 5.30 to 6.00 |
| O=C1S/C(=C\c2c(F)cc(F)c(O)c2F)C(=O)N1Cc1ccc(=O)[nH]c1 [Compound 35, (5Z)-3-[(6-oxo-1,6-dihydropyridin-3-yl)methyl]-5-[(2,4,6-trifluoro-3-hydroxyphenyl)methylidene]-1,3-thiazolidine-2,4-dione] | ≥ 6.00 |
| NS(=O)(=O)c1cccc(CN2C(=O)S/C(=C\c3c(F)cc(F)c(O)c3F)C2=O)c1 [Compound 34, (Z)-3-((2,4-dioxo-5-(2,4,6-trifluoro-3-hydroxybenzylidene)thiazolidin-3-yl)methyl)benzenesulfonamide] | ≥ 6.00 |
| O=C1S/C(=C\c2ccc(F)c(O)c2)C(=O)N1CC1CCOCC1 [Compound 14, (Z)-5-(4-fluoro-3-hydroxybenzylidene)-3-((tetrahydro-2H-pyran-4-yl)methyl)thiazolidine-2,4-dione] | < 5.30 |
| O=C1O/C(=C\c2ccc(F)c(O)c2)C(=O)N1CC1CCOCC1 [Compound 13, (Z)-5-(4-fluoro-3-hydroxybenzylidene)-3-((tetrahydro-2H-pyran-4-yl)methyl) oxazolidine-2,4-dione] | 5.30 to 6.00 |
| O=C1S/C(=C\c2ccc3nn[nH]c3c2)C(=O)N1Cc1cccc(O)c1 [Compound 38, (Z)-5-((1H-benzo[d][1,2,3]triazol-6-yl)methylene)-3-(3-hydroxybenzyl)thiazolidine-2,4-dione] | ≥ 6.00 |
| O=C1S/C(=C\c2c(F)cc(F)c(O)c2F)C(=O)N1Cc1cccc(O)c1 [Compound 4, (Z)-3-(3-hydroxybenzyl)-5-(2,4,6-trifluoro-3-hydroxybenzylidene)thiazolidine-2,4-dione] | 5.30 to 6.00 |
| O=C1S/C(=C\c2ccc(F)c(O)c2)C(=O)N1Cc1cccc(OC(F)(F)F)c1 [Compound 16, (Z)-5-(4-fluoro-3-hydroxybenzylidene)-3-(3-(trifluoromethoxy)benzyl) thiazolidine-2,4-dione] | < 5.30 |
